Assay results as given in US20260027073A1, “USE OF SMALL-MOLECULE COMPOUND HAVING NAPHTHYLAMINE STRUCTURE” (HANGZHOU PHECDAMED CO., LTD., priority 2023, published 2026).

How the values were obtained:
[1] = In vitro liver microsomal stability test
Method: Ketanserin was selected as the reference compound. The specific method was as follows:
0.1 M K3PO4 (pH 7.4) buffer and 3×NADPH stock solution (6 mM, 5 mg/mL) were configured and preheated in a 37° C. water bath; configuration of the test compounds and the control compounds (spiking solution): adding 5 μL of the compound stock solution ([…]) into 95 μL of acetonitrile; configuration of 1.5 μM spiking solution in microsomes (0.75 mg/mL): adding 1.5 μL of spiking solution and 18.75 μL of liver microsomal solution (20 mg/mL) into 479.75 μL of K3PO4 buffer; adding 30 μL of spiking solution in microsomes into the multiwell plate, and incubating at 37° C. for 5 min; adding 15 μL of NADPH storage solution into each well to start to react, and timing; adding 150 μL of acetonitrile solution containing IS at 0 min, 5 min, 15 min, 30 min, and 45 min, respectively, stopping the reaction; oscillating for 10 min, and then centrifuging at 6,000 rpm for 15 min; taking 80 μL of supernatant from each well for LC/MS detection, and calculating T1/2.

CUP model mice = test: Multiple sclerosis CUP model; assay type: in vivo, C57BL/6; settings: for number of open arm entries (elevated cross maze) / walking distance (elevated cross maze) / open arm time (elevated cross maze) / number of crossing over the platform (water maze): 30 mg/kg oral gavage; for number of open arm entries (elevated cross maze): FIG. 86; for walking distance (elevated cross maze): FIG. 87; for open arm time (elevated cross maze): FIG. 88; for number of crossing over the platform (water maze): FIG. 89
Method: After one week of adaptive feeding in 7-8 weeks C57BL/6 female […], they were randomly divided into four groups according to their body weights: the normal control group (Control, 0.5% CMC-Na treatment by oral gavage, n=8), the model group (model, 0.5% CMC-Na treatment by oral gavage, n=8), TJ01-013 treatment group (TJ01-013, 30 mg/kg TJ01-013 by oral gavage, n=8), I-14-1 treatment group (I-14-1, oral gavage 30 mg/kg I-14-1, n=8). The normal control group was fed with the basal diet throughout for 12 weeks, and the model group, TJ01-013 treatment group, and I-14-1 treatment group were fed with 0.2% CUP diet throughout. All groups were administered 5 ml/kg in a volume of 5 ml/kg for a total of 12 weeks starting 6 weeks after modeling.
The elevated cross maze consisted of two open arms (35 cm×6 cm) and two closed arms (35 cm×6 cm×14 cm), with the middle area (6 cm×6 cm) and a height of 70 cm above the ground, and the mice were placed in the middle area facing the open arms, and were active for 5 min in a 50 cm×50 cm open field prior to the start of the test. During the test, the activity time, the activity distance and the number of open arm entries in the mice were counted. Each mouse was wiped with 75% alcohol on the maze after the test.
The mice were placed in a basin with a diameter of 70 cm and a height of 30 cm, and the water temperature was about 22-24° C. The basin was divided into four quadrants, and a platform with a diameter of 5 cm was placed in the target quadrant, which was placed 1 cm below the surface of the water. The mice were acclimatized for 1 day before the official test and learned for 4 days, during learning, the mice entered the water in the direction of facing the wall of the basin, and were given 60 s to search for the platform, or else were guided to learn for 30 s on the platform, and the time that the mice found the platform during learning was recorded. The platform was withdrawn on the day of the test, and the number of crossing over the platform after entering from the opposite quadrant of the target quadrant in mice was recorded to determine the spatial learning and memory ability of the mice.

[2] = test system: rats with 5/6 nephrectomy; test: 5/6 nephrectomy-induced renal injury; assay type: in vivo, SD rats
Method: 5/6 nephrectomy directly leads to a large reduction of renal units, high workload of residual renal units, and combined hypertension (or non-hypertension), and these features are similar to the symptoms of patients with clinical nephrectomy, CKD hypertensive syndrome, and solitary kidney, and like, and the pathological changes are dominated by glomerulosclerosis and tubulo-fibrosis, which is a good model for the study of CKD. The model was prepared as follows, 230-250 g male SD rats were anesthetized with isoflurane gas, and an incision of about 3 cm at 1 cm left and below of the cribriform ridge corner was made, fully exposing the left kidney, and after exposing the kidney in the sham group, the muscle and skin were sutured with sutures, during which there was no ligation and no resection. In the model group, about ⅓ of the cortex of the upper and lower left kidney was cut with ophthalmic surgical scissors, and was pressed with the absorbable gelatin sponge to stop bleeding for 3 min, then the hemostatic clip was released, and whether there is obvious bleeding was observed and the residual kidney was reset, and the muscle and skin were sutured with sutures. After 1 week, the second surgery was performed, and after fully exposing the right kidney, the renal pedicle and the ureter were ligated, and the right kidney was resected. Similarly, in the sham group, after exposing the kidney, the muscle and skin were sutured with sutures, during which there was no ligation and no resection. Penicillin (80 kU/rat) was routinely injected for three days after surgery. […] In the experiment, 10 d after the end of the right nephrectomy surgery, the serum creatinine level of rats increased, which was statistically significant compared to the sham group, and began to be administered in groups.
The experiments were conducted in sham group (exposing both kidneys without resection), Control group (model group, given vehicle treatment by oral gavage), and 15 mg/kg I-1 group (15 mg/kg by oral gavage), respectively, during the experimental period, a drug was administered once a day for a total of 27 days, and the 24-hour urine of the rats in each group was collected by metabolism cages on the 28th day to measure the volume of urine, urine creatinine, and urine protein. At the same time, blood was collected from the heart, and the blood was centrifuged at 12000 g for 10 min at 4° C. after standing at room temperature for 45 min, the supernatant (serum) was taken to measure the creatinine level in the serum, and finally the creatinine clearance was calculated. After euthanasia of rats at endpoint of the test, the kidneys were dissected and removed, in which four kidneys of rats were fixed with 4% paraformaldehyde for 48 h, paraffin-embedded, sectioned, and HE stained as described above.

liver microsomal stability (elimination half-life T1/2) ([1]; in vitro mouse or human liver microsomal environment, FIG. 19) | SMILES | liver microsomal stability (elimination half-life T1/2) ([1]; microsomes) | number of open arm entries (elevated cross maze) (CUP model mice) | walking distance (elevated cross maze) (CUP model mice) | open arm time (elevated cross maze) (CUP model mice) | number of crossing over the platform (water maze) (CUP model mice) | treatment of TJ01-013 compared with I-14-1 (CUP model mice; per readout of the block) | 24 h urine protein content ([2]; 15 mg/kg oral gavage, 27 days, FIG. 6) | blood creatinine level ([2]; 15 mg/kg oral gavage, 27 days, P<0.001, FIG. 5) | body weight ([2]; 15 mg/kg oral gavage, 27 days, vs model group, P<0.05, FIG. 4) | degree of lesions in the renal tissues (HE staining) ([2]; 15 mg/kg, 27 days, FIG. 8) | creatinine clearance rate ([2]; 15 mg/kg, 27 days, vs model control, FIG. 7) | Renal lesions (number of kidneys, n = 4) ([2]; Degree of lesion +++ (severe lesions), 15 mg/kg) | Renal lesions (number of kidneys, n = 4) ([2]; Degree of lesion ± (slight lesions), 15 mg/kg) | Renal lesions (number of kidneys, n = 4) ([2]; Degree of lesion − (no lesions seen), 15 mg/kg) | protection against 5/6 nephrectomy-induced renal injury compared with I-1 group ([2]; UMI-77 vs I-1)
– | O=C(O)C[S+]([O-])c1cc(NS(=O)(=O)c2ccc(Br)cc2)c2ccccc2c1O (centres unmarked) [I-1] | superior liver microsomal stability | significantly reduced | reduced | significantly decreased | increased | significantly better | significantly reduced | significantly reduced | significant increase | improved the degree of lesions | improvement trend | 0 | 0 | 0 | –
– | O=C(O)C[S+]([O-])c1cc(NS(=O)(=O)c2ccc(C(F)(F)F)cc2)c2ccccc2c1O (centres unmarked) [I-14-1] | – | significantly reduced | reduced | significantly decreased | increased | – | – | – | – | – | – | – | – | – | –
unstable | O=C(O)CSc1cc(NS(=O)(=O)c2ccc(Br)cc2)c2ccccc2c1O [UMI-77, reference compound] | – | – | – | – | – | – | – | – | – | – | – | – | – | – | less protective
